# Measured values: ChEMBL document CHEMBL1125092, “Nonneurotoxic tetralin and indan analogues of 3,4-(methylenedioxy)amphetamine (MDA)” (J Med Chem, 1990)
# “And” between values parts separate entries of the source, which are not always exact repeats. Equal values may be shown once.
# Columns and labels:
# Type in all cases: functional
# [1] = system: Rattus norvegicus; assay: Hallucinogenic property was determined in groups of LSD trained rats and percentage of animals disrupted was reported at a dose 0.186 (umol/kg),(number of animals = 8)
# [2] = system: Rattus norvegicus; assay: Hallucinogenic property was determined in groups of LSD trained rats and percentage of animals disrupted was reported at 0.023 (umol/kg) (number of animals = 8)
# [3] = system: Rattus norvegicus; assay: Hallucinogenic property was determined in groups of LSD trained rats and percentage of animals disrupted was reported at a dose 0.012 (umol/kg),(number of animals = 8)
# [4] = system: Rattus norvegicus; assay: Hallucinogenic property was determined in groups of LSD trained rats and percentage of animals disrupted was reported at a dose 0.046(umol/kg) (number of animals = 9)
# [5] = system: Rattus norvegicus; assay: Hallucinogenic property was determined in groups of LSD trained rats and percentage of animals disrupted was reported at a dose 0.093(umol/kg) (number of animals = 8)
# [6] = species: Rattus norvegicus; assay: Inhibitory activity was determined LSD trained rats
# [7] = system: Rattus norvegicus; assay: Tested for stimulus generation in rats trained to discriminate LSD from saline at a dose 0.046(umol/kg) (number of animals = 9)
# [8] = system: Rattus norvegicus; assay: Tested for stimulus generation in rats trained to discriminate LSD from saline at a dose 0.093(umol/kg) (number of animals = 8)
# [9] = system: Rattus norvegicus; assay: Tested for stimulus generation in rats trained to discriminate LSD from saline at a dose 0.186 (umol/kg),(number of animals = 8)
# [10] = system: Rattus norvegicus; assay: Tested for stimulus generation in rats trained to discriminate LSD from saline at a dose 0.012 (umol/kg),(number of animals = 8)
# [11] = system: Rattus norvegicus; assay: Tested for stimulus generation in rats trained to discriminate LSD from saline at a dose 0.023 (umol/kg) (number of animals = 8)
# [12] = system: Rattus norvegicus; assay: Hallucinogenic property was determined in groups of LSD trained rats and percentage of animals disrupted was reported at a dose 4.10 (umol/kg),(number of animals = 10)
# [13] = system: Rattus norvegicus; assay: Percentage of animals disrupted in groups of MDMA trained rats at a dose of 4.10 (umol/kg),(number of animals = 8)
# [14] = system: Rattus norvegicus; assay: Percentage of animals disrupted in groups of MDMA trained rats at a dose of 8.21 (umol/kg),(number of animals = 9)
# [15] = system: Rattus norvegicus; assay: Percentage of animals disrupted was determined in groups of LSD trained rat at a dose of 18.46 (umol/kg),(no. of animals=9)
# [16] = system: Rattus norvegicus; assay: Percentage of animals disrupted was determined in groups of LSD trained rat at a dose of 6.15 (uM/kg), (no.of animals = 11)
# [17] = system: Rattus norvegicus; assay: Percentage of animals disrupted was determined in groups of LSD trained rat at a dose of 8.21 (umol/kg),(no. of animals = 8)
# [18] = system: Rattus norvegicus; assay: Percentage of animals disrupted in groups of MDMA trained rats at a dose of 12.31 (umol/kg),(number of animals = 8)
# [19] = system: Rattus norvegicus; assay: Percentage of animals disrupted in groups of MDMA trained rats at a dose of 16.41 (umol/kg),(number of animals = 11)
# [20] = system: Rattus norvegicus; assay: Percentage of animals disrupted in groups of MDMA trained rats at a dose of 17.44 (umol/kg),(number of animals = 11)
# [21] = system: Rattus norvegicus; assay: Percentage of animals disrupted in groups of MDMA trained rats at a dose of 20.51 (umol/kg),(number of animals = 7)
# [22] = system: Rattus norvegicus; assay: Tested for stimulus generation in rats trained to discriminate LSD from saline at a dose 16.41(.umol/kg),(number of animals = 11)
# [23] = system: Rattus norvegicus; assay: Tested for stimulus generation in rats trained to discriminate LSD from saline at 4.10 (umol/kg),(number of animals = 10)
# [24] = system: Rattus norvegicus; assay: Tested for stimulus generation in rats trained to discriminate LSD from saline at a 18.46 (umol/kg),(number of animals = 9)
# [25] = system: Rattus norvegicus; assay: Tested for stimulus generation in rats trained to discriminate +/-MDMA from saline at 8.21 (umol/kg),(number of animals = 9)
# [26] = system: Rattus norvegicus; assay: Tested for stimulus generation in rats trained to discriminate LSD from saline at a dose 6.15 (umol/kg),(number of animals = 11)
# [27] = system: Rattus norvegicus; assay: Tested for stimulus generation in rats trained to discriminate LSD from saline at a dose 8.21 (umol/kg),(number of animals = 8)
# [28] = system: Rattus norvegicus; assay: Tested for stimulus generation in rats trained to discriminate +/-MDMA from saline at 12.31 (umol/kg),(number of animals = 8)
# [29] = system: Rattus norvegicus; assay: Tested for stimulus generation in rats trained to discriminate +/-MDMA from saline at 16.41(.umol/kg),(number of animals = 11)
# [30] = system: Rattus norvegicus; assay: Tested for stimulus generation in rats trained to discriminate +/-MDMA from saline at 4.10 (umol/kg),(number of animals = 8)
# [31] = system: Rattus norvegicus; assay: Tested for stimulus generation in rats trained to discriminate +/-MDMA from saline at 17.44i (umol/kg),(number of animals = 11)
# [32] = system: Rattus norvegicus; assay: Percentage of animals disrupted was determined in groups of LSD trained rat at a dose of 16.41 (umol/kg),(no. of animals=11)
smiles,measurement,setting,value
CCN(CC)C(=O)[C@@H]1C=C2c3cccc4[nH]cc(c34)C[C@H]2N(C)C1 [LYSERGIDE],D,[1],0%
same,D,[2],0%
same,D,[3],0%
same,D,[4],0%
same,D,[5],0%
same,ED50,[6],0.048 µM/kg and 0.021 µM/kg
same,SDL,[7],44%
same,SDL,[8],88%
same,SDL,[9],100%
same,SDL,[10],13%
same,SDL,[11],0%
COc1cc(C)c(OC)c2c1CC(N)C2 (configuration not stated),D,[12],0%
same,D,[13],0%
same,D,[14],11%
same,D,[15],0%
same,D,[16],27%
same,D,[17],0%
same,D,[18],0%
same,D,[19],27%
same,D,[20],27%
same,D,[21],71%
same,SDL,[22],63%
same,SDL,[23],20%
same,SDL,[24],89%
same,SDL,[25],38%
same,SDL,[26],38%
same,SDL,[27],38%
same,SDL,[28],25%
same,SDL,[29],75%
same,SDL,[30],13%
same,SDL,[31],50%
same,D,[32],27%
